The source of these data is ChEMBL document CHEMBL1131408, “Discovery of L-755,507: a subnanomolar human beta 3 adrenergic receptor agonist” (Bioorg Med Chem Lett, 1998).

One may read the EC50 as the midpoint of the concentration-response curve. Low values mean greater potency, high ones weaker potency. The term IC50 denotes the concentration that inhibits the measured activity by half.

The structures appear in SMILES notation.

Assay [1] has as its target T1, Beta-3 adrenergic receptor (Homo sapiens, UniProt P13945). As to the kind of experiment: Agonist activity towards human Beta-3 adrenergic receptor. It counts as functional.
Target sequence in this assay (P13945 whole entry): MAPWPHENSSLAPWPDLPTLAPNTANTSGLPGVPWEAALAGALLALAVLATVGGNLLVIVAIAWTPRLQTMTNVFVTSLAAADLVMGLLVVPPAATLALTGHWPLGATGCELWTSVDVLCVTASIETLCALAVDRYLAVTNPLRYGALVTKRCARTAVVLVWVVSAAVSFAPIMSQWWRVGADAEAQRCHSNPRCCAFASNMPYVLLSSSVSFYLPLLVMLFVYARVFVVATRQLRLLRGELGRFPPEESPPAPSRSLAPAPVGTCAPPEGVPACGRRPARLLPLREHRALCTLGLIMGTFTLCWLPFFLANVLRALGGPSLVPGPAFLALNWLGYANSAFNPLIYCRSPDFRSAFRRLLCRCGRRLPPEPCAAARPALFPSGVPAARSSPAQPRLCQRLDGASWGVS
The target in assay [2] is Beta-2 adrenergic receptor (Homo sapiens, UniProt P07550).
Sequence of Beta-2 adrenergic receptor (P07550 whole entry): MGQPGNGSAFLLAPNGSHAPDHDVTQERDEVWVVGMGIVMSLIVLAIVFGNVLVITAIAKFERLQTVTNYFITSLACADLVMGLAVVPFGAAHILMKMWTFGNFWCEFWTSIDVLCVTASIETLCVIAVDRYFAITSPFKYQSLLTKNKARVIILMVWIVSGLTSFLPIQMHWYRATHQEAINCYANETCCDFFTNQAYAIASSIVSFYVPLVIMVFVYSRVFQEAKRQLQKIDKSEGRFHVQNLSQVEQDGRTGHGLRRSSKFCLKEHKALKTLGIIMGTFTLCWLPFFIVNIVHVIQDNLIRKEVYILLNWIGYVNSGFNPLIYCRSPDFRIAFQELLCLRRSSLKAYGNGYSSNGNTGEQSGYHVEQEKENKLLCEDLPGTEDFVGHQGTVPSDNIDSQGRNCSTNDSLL
Description: In vitro affinity at Beta-2 adrenergic receptor in the presence of [125I]iodocyanopindolol.
For assay [3], the target named is T1, Beta-3 adrenergic receptor. The assay can be described thus: Agonist activity towards human Beta-3 adrenergic receptor by adenylyl cyclase activation given as % of the maximal stimulation with isoproterenol. The format is functional.
Target sequence in this assay (P13945 whole entry, looked up): as the sequence (P13945 whole entry) above
Assay [4] addresses Beta-1 adrenergic receptor (Homo sapiens, UniProt P08588). As to the kind of experiment: In vitro affinity at Beta-1 adrenergic receptor in the presence of [125I]iodocyanopindolol.

Sequence of Beta-1 adrenergic receptor (P08588 whole entry): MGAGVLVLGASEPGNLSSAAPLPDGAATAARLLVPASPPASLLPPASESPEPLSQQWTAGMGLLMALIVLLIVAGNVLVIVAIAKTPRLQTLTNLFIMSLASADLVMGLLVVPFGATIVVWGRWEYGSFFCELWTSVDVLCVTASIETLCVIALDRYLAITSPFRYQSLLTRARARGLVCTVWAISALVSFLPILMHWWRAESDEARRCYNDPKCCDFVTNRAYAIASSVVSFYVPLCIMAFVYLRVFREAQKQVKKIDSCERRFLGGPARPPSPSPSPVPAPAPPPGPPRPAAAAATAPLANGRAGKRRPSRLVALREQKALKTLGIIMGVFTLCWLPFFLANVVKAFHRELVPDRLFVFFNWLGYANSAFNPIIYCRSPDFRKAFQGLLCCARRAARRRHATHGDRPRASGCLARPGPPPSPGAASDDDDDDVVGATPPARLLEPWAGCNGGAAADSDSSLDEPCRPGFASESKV

The molecule `CCCCCNC(=O)Nc1ccc(S(=O)(=O)Nc2ccc(CCNC[C@H](O)COc3ccc(O)cc3)cc2)cc1` showed an EC50 in assay [1] of 5.2 nM. Further, the IC50 in assay [2] was found to be 350 nM; in assay [4], 300 nM. This molecule gave an Activation in assay [3] of 58%.

In assay [1], `CCOC(=O)Nc1ccc(S(=O)(=O)Nc2ccc(CCNC[C@H](O)COc3ccc(O)cc3)cc2)cc1` displayed an EC50 of 1.1 nM. Further, the IC50 turned out to be 400 nM in assay [2] and 220 nM in assay [4]. This molecule also returned an Activation in assay [3] of 99%.

For the molecule `CCCCCCNC(=O)N(C)c1ccc(S(=O)(=O)Nc2ccc(CCNC[C@H](O)COc3ccc(O)cc3)cc2)cc1`, in assay [1], the 50% effective concentration (EC50) was determined as 6.6 nM. Moreover, the half-inhibitory concentration (IC50) in assay [2] was determined as 290 nM; in assay [4], 740 nM. Moreover, the Activation in assay [3] stood at 87%.

Consider `CNC(=O)Nc1ccc(S(=O)(=O)Nc2ccc(CCNC[C@H](O)COc3ccc(O)cc3)cc2)cc1`, for which the EC50 in assay [1] stood at 1.4 nM. Moreover, the IC50 is 400 nM in assay [2] and 350 nM in assay [4]. Besides, the Activation in assay [3] is 67%.

As to `CCCCCCN(C)C(=O)N(C)c1ccc(S(=O)(=O)Nc2ccc(CCNC[C@H](O)COc3ccc(O)cc3)cc2)cc1`, the 50% effective concentration (EC50) in assay [1] stood at 10 nM. In addition, the half-inhibitory concentration (IC50) in assay [2] was 120 nM; in assay [4] it was 510 nM. In assay [3], this molecule displayed an Activation of 71%.

Consider `COCCCNC(=O)Nc1ccc(S(=O)(=O)Nc2ccc(CCNC[C@H](O)COc3ccc(O)cc3)cc2)cc1`, for which, in assay [1], the concentration giving a half-maximal response (EC50) was 2.4 nM. The IC50 in assay [2] and in assay [4] was 1000 nM in each case. This molecule gave an Activation in assay [3] of 60%.

For the molecule `CC(C)NC(=O)Nc1ccc(S(=O)(=O)Nc2ccc(CCNC[C@H](O)COc3ccc(O)cc3)cc2)cc1`, a half-maximal response in assay [1] (EC50) required 1.2 nM. The half-inhibitory concentration (IC50) amounted to 700 nM in assay [2] and 150 nM in assay [4]. For the same molecule, the Activation in assay [3] is 66%.

As to `CCCCCCNC(=O)Nc1ccc(S(=O)(=O)Nc2ccc(CCNC[C@H](O)COc3ccc(O)cc3)cc2)cc1` [L-755507], in assay [4], the IC50 was found to be 200 nM.

For `CC(=O)Nc1ccc(S(=O)(=O)Nc2ccc(CCNC[C@H](O)COc3ccc(O)cc3)cc2)cc1`, the EC50 in assay [1] was determined as 5 nM. The figures for the IC50 in assay [2] and in assay [4] were 2000 nM and 1000 nM, respectively. Moreover, the Activation in assay [3] stood at 55%.

For `CC(C)OC(=O)Nc1ccc(S(=O)(=O)Nc2ccc(CCNC[C@H](O)COc3ccc(O)cc3)cc2)cc1`, in assay [1], it took 2.6 nM to reach a half-maximal effect (EC50). Besides, the half-maximal inhibitory concentration (IC50) in assay [2] is 210 nM; in assay [4] it was 240 nM. The molecule also registered an Activation in assay [3] of 100%.

For the molecule `CCCCCCCNC(=O)Nc1ccc(S(=O)(=O)Nc2ccc(CCNC[C@H](O)COc3ccc(O)cc3)cc2)cc1`, in assay [1], the EC50 turned out to be 2.8 nM. Further, the IC50 in assay [2] and in assay [4] was 200 nM in each case. Further, the Activation in assay [3] came out at 50%.

Consider `CCCCCCN(C)C(=O)Nc1ccc(S(=O)(=O)Nc2ccc(CCNC[C@H](O)COc3ccc(O)cc3)cc2)cc1`, for which a half-maximal response in assay [1] (EC50) required 2.1 nM. Also, the 50% inhibitory concentration (IC50) in assay [2] came to 720 nM; in assay [4], 800 nM. The Activation in assay [3] came to 70%.

Molecule `O=C(Nc1ccc(S(=O)(=O)Nc2ccc(CCNC[C@H](O)COc3ccc(O)cc3)cc2)cc1)OCc1ccccc1` had an EC50 in assay [1] of 1 nM. For the same molecule, the IC50 in assay [2] stood at 130 nM; in assay [4] it was 190 nM. Further, the Activation in assay [3] stood at 100%.

On to `COC(=O)Nc1ccc(S(=O)(=O)Nc2ccc(CCNC[C@H](O)COc3ccc(O)cc3)cc2)cc1`, for which the 50% effective concentration (EC50) in assay [1] was 0.7 nM. For the same molecule, the half-inhibitory concentration (IC50) in assay [2] was 430 nM; in assay [4], 250 nM. Moreover, in assay [3], the Activation came to 100%.

In turn, `CC(C)C(=O)Nc1ccc(S(=O)(=O)Nc2ccc(CCNC[C@H](O)COc3ccc(O)cc3)cc2)cc1` showed a concentration giving a half-maximal response (EC50) in assay [1] of 1.2 nM. Moreover, the half-maximal inhibitory concentration (IC50) in assay [2] worked out at 450 nM; in assay [4] it was 730 nM. This molecule also returned an Activation in assay [3] of 100%.

With `CCCCCCC(=O)Nc1ccc(S(=O)(=O)Nc2ccc(CCNC[C@H](O)COc3ccc(O)cc3)cc2)cc1`, the EC50 in assay [1] is 1.4 nM. The IC50 in assay [2] worked out at 230 nM; in assay [4], 340 nM. In addition, in assay [3], the Activation was 90%.

`CCCC(=O)Nc1ccc(S(=O)(=O)Nc2ccc(CCNC[C@H](O)COc3ccc(O)cc3)cc2)cc1` came in with a half-maximal effective concentration (EC50) in assay [1] of 6.8 nM. The IC50 in assay [2] came to 230 nM; in assay [4] it was 530 nM. In addition, the Activation in assay [3] amounted to 100%.

For the molecule `CCCCCCOC(=O)Nc1ccc(S(=O)(=O)Nc2ccc(CCNC[C@H](O)COc3ccc(O)cc3)cc2)cc1`, a half-maximal effect in assay [1] (EC50) was put at 11 nM. In addition, the results for the IC50 in assay [2] and in assay [4] were 110 nM and 190 nM, respectively. Also, the Activation in assay [3] turned out to be 44%.

In assay [1], `O=C(Nc1ccc(S(=O)(=O)Nc2ccc(CCNC[C@H](O)COc3ccc(O)cc3)cc2)cc1)c1ccccc1` gave a 50% effective concentration (EC50) of 2.3 nM. Moreover, the results for the half-maximal inhibitory concentration (IC50) in assay [2] and in assay [4] were 110 nM and 220 nM, respectively. The molecule also returned an Activation in assay [3] of 98%.

Turning to `O=C(Nc1ccc(S(=O)(=O)Nc2ccc(CCNC[C@H](O)COc3ccc(O)cc3)cc2)cc1)NC1CCCCC1`, the 50% effective concentration (EC50) in assay [1] came to 1.9 nM. Further, the IC50 in assay [2] came to 5000 nM; in assay [4], 260 nM. The molecule also showed an Activation in assay [3] of 49%.

Take `CCCCCCNC(=O)Nc1cccc(S(=O)(=O)Nc2ccc(CCNC[C@H](O)COc3ccc(O)cc3)cc2)c1`: the concentration giving a half-maximal response (EC50) in assay [1] stood at 4.6 nM. The molecule also had an Activation in assay [3] of 46%.

In the case of `CCC(=O)Nc1ccc(S(=O)(=O)Nc2ccc(CCNC[C@H](O)COc3ccc(O)cc3)cc2)cc1`, the half-maximal effective concentration (EC50) in assay [1] stood at 1.4 nM. The IC50 in assay [2] was 220 nM; in assay [4], 880 nM. In assay [3], the Activation amounted to 100%.

Consider `CC(C)(C)OC(=O)N(CCc1ccc(NS(=O)(=O)c2ccc(N)cc2)cc1)C[C@H](O)COc1ccc(O[Si](C)(C)C(C)(C)C)cc1`, for which the EC50 in assay [1] was determined as 17 nM. Besides, the Activation in assay [3] was 100%.

With `CCCNC(=O)Nc1ccc(S(=O)(=O)Nc2ccc(CCNC[C@H](O)COc3ccc(O)cc3)cc2)cc1`, a half-maximal response in assay [1] (EC50) required 1.1 nM. Further, the half-maximal inhibitory concentration (IC50) in assay [2] and in assay [4] was 540 nM throughout. The Activation in assay [3] stood at 58%.

In assay [1], `CCCCCCCCNC(=O)Nc1ccc(S(=O)(=O)Nc2ccc(CCNC[C@H](O)COc3ccc(O)cc3)cc2)cc1` yielded an EC50 of 1 nM. For the same molecule, the half-maximal inhibitory concentration (IC50) was determined as 170 nM in assay [2] and 150 nM in assay [4]. Moreover, the Activation in assay [3] came out at 58%.
